From US7629172B2, “Entrapped binding protein as biosensors” (Becton, Dickinson and Company, priority 2002, dated 2009) come the findings set out here.

Experiment [1] in a line: Change in fluorescence of reporter-labeled GGBP mutants in solution on glucose addition. It is filed as biochemical. To be noted: GGBP-H6 NBD. Here is the method: Labeled mutated maltose binding protein S337C MBP with fluorophore reporter probe NBD used herein in accordance with the procedure set forth by Cass, A. et al. (Anal. Chem. 1994, 66, 3840-3847). Fluorescence emission spectra of mutated, labeled protein was measured using an SLM Aminco fluorimeter (Ontario, Canada) with slit settings of 8 and 4 for excitation and settings of 5 and 5 on the MC250 emission monochromator to compare the ligand-binding performance of the entrapped fluorophore-labeled proteins in various matrixes to the performance of the same proteins in solution. The initial fluorescence emission intensity is defined as Io. The relative ratio of the emission intensity maxima in the presence of the protein's respective ligand (If) to the ligand's absence (Io) is defined as ΔF.
This example describes generically the labeling of binding protein with reporter probe. An aliquot of mutant GGBP containing cysteine (4.0 nmol) in PBS was treated with 2 mM dithiothreitol (5 μL, 10 nmol) for 30 min. A stock solution of N,N′-dimethyl-N-(iodoacetyl)-N′-(7-nitrobenz-2-oxa-1,3-diazol-4-yl)ethylenediamine (IANBD amide, 0.5 mg) was prepared in DMSO (100 μL, 11.9 mM) and 3.36 μL (40 nmol) was added to the protein. The reaction proceeded at room temperature for 4 h on a Dynal rotamix in the dark. The labeled protein was purified by gel filtration on a NAP-5 column (Amersham Pharmacia). The labeling rations were determined using an estimated extinction coefficient (50 mM^−1 cm^−1) for GGBP that was calculated in GeneWorks 2.45 (IntelliGenetics), ε478 (IANBD amide)=25 mM^−1cm^−1), and a measurement of O.D. for a standard solution of IANBD amide at 280 nm and 478 nm. The dye concentration in the protein was calculated as […]. The absorbance of protein at 280 nm was calculated as Aprot(280)=Atotal(280)−Adye(280), where Adye(280)=A478×(A280/A478)standard. The concentration of protein was then […].

Experiment [2] in a line: Binding constant (Kd) by titration of glucose into labeled protein solution. Here is the method:
(§1) Binding constants were determined by titration of increasing concentrations of glucose into a protein solution with mixing following each addition of glucose. Slit settings were the same as listed above. The Kd was determined from the following relationships as adapted from Pisarchick and Thompson (1990):
where F is fluorescence intensity, Finf is fluorescence at infinity, F0 is fluorescence at zero glucose, and x is the free concentration of glucose ([Glc]free) as determined by the relationship:
where [Glc]tot and [Prot]tot are the total concentrations of glucose and protein, respectively.

Experiment [3] can be described thus: Kd of labeled GGBP entrapped in optimized GMSC sol-gel. It is filed as binding. The following applies: protein entrapped in optimized sol-gel formulation. Here is the method:
as §1
Entrapment Of Binding Proteins In GMSC Sol-Gels Containing Functionalized Silicone Additives (FSA) and Polymers. This example describes the addition of polymer and organic polyol additives to optimize the GMSC sol-gels for entrapping binding proteins to both maintain and enhance their spectral properties upon ligand binding. The binding proteins were labeled with a fluorophore (as described in example 3). The protein solutions were added during the final hydrolysis/gelling step described previously to produce final concentrations of 2-4 μM protein within the sol-gel. […] Polymer additives were evaluated in amounts between 0 to about 30 wt. Functionalized silicone additives (FSA) were evaluated as additives to the GMSC sol-gels in amounts from 0 to about 0.6% mole ratio. […] Fluorescence emission was measured with a Varian Cary Eclipse scanning fluorometer with microwell plate adapter (Varian Instruments, Victoria, Australia). Excitation was at 475 nm and emission recorded from 500 to 600 nm, typically monitoring emission maximum peak fluorescence. […]

A short description of experiment [4]: ΔF of labeled GGBP entrapped in optimized GMSC sol-gel (96 well microplate). It is filed as biochemical. Here is the method: Entrapment Of Binding Proteins In GMSC Sol-Gels Containing Functionalized Silicone Additives (FSA) and Polymers. This example describes the addition of polymer and organic polyol additives to optimize the GMSC sol-gels for entrapping binding proteins to both maintain and enhance their spectral properties upon ligand binding. The binding proteins were labeled with a fluorophore (as described in example 3). The protein solutions were added during the final hydrolysis/gelling step described previously to produce final concentrations of 2-4 μM protein within the sol-gel. The polymer additives and FSA's were obtained from Sigma-Aldrich Chemicals (St. Louis, Mo.). Polymer additives were evaluated in amounts between 0 to about 30 wt. Functionalized silicone additives (FSA) were evaluated as additives to the GMSC sol-gels in amounts from 0 to about 0.6% mole ratio. Thus, rotary evaporation of the GMSC reagent to remove methanol from its storage solution was followed by reconstitution in water in a 1:1 ratio by weight. […] Fluorescence emission was measured with a Varian Cary Eclipse scanning fluorometer with microwell plate adapter (Varian Instruments, Victoria, Australia). Excitation was at 475 nm and emission recorded from 500 to 600 nm, typically monitoring emission maximum peak fluorescence. […]

A short description of experiment [5]: GGBP L238C/A213C in dialysis membrane on fiber optic, reversibility of signal. The following applies: cycles between PBS buffer and 2 mM, 20 mM glucose; emission 521 nm; FIG. 4. It is filed as biochemical. Here is the method: This example describes the immobilization of a biosensor of the instant invention into a dialysis membrane matrix and the ability of the matrix to provide reversible and continuous readings. Using a Varian Eclipse fluorimeter with a fiber optic attachment, GGBP L238C/A213C protein (2 μM in PBS buffer) entrapped within a dialysis membrane having a molecular cut-off of 3500 Daltons affixed to the distal end of the fiber. Solutions were prepared containing PBS buffer, 2 mM, and 20 mM glucose in PBS buffer. With the probe in PBS solution, readings were recorded at 0.02 seconds intervals of the emission wavelength 521 nm, followed by insertion of the fiber into the glucose solutions.

The nature of experiment [6]: ΔF of H152 GGBP-H6 NBD entrapped in sol-gel matrixes vs solution. The format is biochemical. The following applies: ratio If/Io, matrix containing H152 GGBP-H6 NBD.
The nature of experiment [7]: GGBP H152C entrapped in UV cross-linked SbQ-PVA hydrogel, glucose challenge. It is filed as biochemical. The method, then:
This example describes the entrapment of GGBP H152C in UV cross-linked hydrogel matrix and the effect of the matrix on the fluorescence change and binding affinity. In this experiment SbQ-PVA from Polysciences Inc. was added 100 ul of PBS buffer and mixed for one hour to mix in a rotary mixer. 80 ul of this solution was then mixed with 20 ul of labeled protein. Final protein concentration was spectroscopically determined to be 0.15 mg/ml. After mixing, aliquiots were dispensed into 96-well plates and dried in a chamber maintained at 20% humidity for 12 h followed by curing with UV light. Wells containing protein encapsulated in matrix were challenge with 2 ul of 10 mM glucose and compared to protein solution without matrix having equivalent protein loading.

Setting [8] is: from 0 to 1 mM Glc at 0.5 μM [NBD].
Where [9] appears, read: GGBP-H6 NBD, solution, measured at 0.1 μM [dye], read-out: Solution Kd.
Where [10] appears, read: protein in solution, read-out: Kd (mM) [solution value].

“D14C: GGBP-H6 NBD mutant, cysteine substituted for aspartic acid at position 14”: the “Δ F(%)” value in experiment [1] (setting [8]) was 1%.

E149C, L238S: GGBP-H6 NBD double mutant: in experiment [2] (setting [9]), the Kd (as a rule, the free concentration of one partner at which half of the binding sites on the other are occupied at equilibrium, for simple one-to-one binding) was found to be 80 µM.

For the molecule E149C, A213R: GGBP-H6 NBD double mutant, in experiment [2] (setting [9]), the Kd was 1000 µM.

On to “E149C, A213S, L238S: GGBP-H6 NBD triple mutant”, for which, in experiment [2] (setting [9]), the Kd came out at 470 µM. Besides, the “Δ F(%)” value in experiment [1] (setting [8]) was determined as 480%.

For “K137C: GGBP-H6 NBD mutant, cysteine substituted for lysine at position 137”, in experiment [2] (setting [9]), the dissociation constant Kd worked out at 0.04 µM.

In the case of “N43C: GGBP-H6 NBD mutant, cysteine substituted for asparagine at position 43”, the Kd in experiment [2] (setting [9]) was found to be 0.2 µM. Also, the “Δ F(%)” value in experiment [1] (setting [8]) was 40%.

Regarding “K11C: GGBP-H6 NBD mutant, cysteine substituted for lysine at position 11”, the “Δ F(%)” value in experiment [1] (setting [8]) worked out at 10%.

With “L238C: GGBP-H6 NBD mutant, cysteine substituted for leucine at position 238”, the “Δ F(%)” value in experiment [1] (measured from 0 to 100 mM Glc) was “+3%”.

Turning to E149C, N256S: GGBP-H6 NBD double mutant, the “Δ F(%)” value in experiment [1] (setting [8]) is 1%.

Consider “V19C: GGBP-H6 NBD mutant, cysteine substituted for valine at position 19”, for which the Kd in experiment [2] (setting [9]) turned out to be 0.1 µM.

Regarding “G74C: GGBP-H6 NBD mutant, cysteine substituted for glycine at position 74”, the Kd in experiment [2] (setting [9]) came out at 0.9 µM.

With “R292C: GGBP-H6 NBD mutant, cysteine substituted for arginine at position 292”, the equilibrium dissociation constant (Kd) in experiment [2] (setting [9]) worked out at 0.8 µM.

With “A213C, L238C: GGBP-H6 NBD double mutant, cysteines at positions 213 and 238”, the values for the Kd in experiment [3], in experiment [2] (setting [9]) and in experiment [2] (setting [10]) were 2200 µM, 6000 µM and 6000 µM, respectively. In experiment [4] (sugar challenge 100 mM glucose), the “ΔF (enhancement vs. solution)” value is 2.36x. Besides, in experiment [5], the reversibility of signal result was “return of initial signal”. Moreover, the “Δ F(%)” value in experiment [1] (setting [8]) turned out to be 24%; in experiment [1] (measured from 0 to 100 mM Glc), 67%.

Consider “E149C: GGBP-H6 NBD mutant, cysteine substituted for glutamic acid at position 149”, for which the Kd in experiment [2] (setting [9]) worked out at 0.2 µM. Moreover, the “Δ F(%)” value in experiment [1] (setting [8]) is 300%.

On to “wild type: wild type E. coli galactose/glucose binding protein (GGBP-H6), intrinsic fluorescence [reference compound]”, for which, in experiment [2] (setting [9]), the dissociation constant (Kd) turned out to be 0.2 µM.

Consider “E149C, A213R, L238S: GGBP-H6 NBD triple mutant”, for which the dissociation constant (Kd) in experiment [2] (setting [9]) was found to be 35000 µM. In experiment [1] (setting [8]), the “Δ F(%)” value is listed as 500%.

With H152C, A213S: GGBP-H6 NBD double mutant, the Kd in experiment [2] (setting [9]) turned out to be 160 µM. For the same molecule, in experiment [1] (setting [8]), the “Δ F(%)” value is reported as 100%.

With “Y107C: GGBP-H6 NBD mutant, cysteine substituted for tyrosine at position 107”, the dissociation constant (Kd) in experiment [2] (setting [9]) was determined as 1 µM.

With “D287C: GGBP-H6 NBD mutant, cysteine substituted for aspartic acid at position 287”, the “Δ F(%)” value in experiment [1] (setting [8]) amounted to 4%.

With “H 152 C GGBP-NBD: glucose/galactose binding protein with cysteine at position 152, His6 tag, labeled with NBD”, the “ΔF (10 mM Glucose)” value in experiment [6] worked out at 1.53. Besides, the Kd in experiment [3] is 360 µM; in experiment [2] (setting [10]), 70 µM. Further, in experiment [4] (sugar challenge 10 mM glucose), the “ΔF (enhancement vs. solution)” value amounted to 2.93x. The “Kd of the entrapped protein” value in experiment [7] (SbQ-PVA UV cross-linked hydrogel) is listed as “comparable to that obtained in solution”. For the same molecule, in experiment [7] (SbQ-PVA hydrogel, 10 mM glucose challenge, FIG. 3), the “response to the analyte (fluorescence) vs solution” value is “equivalent to that obtained in solution”.

S112C, L238S: GGBP-H6 NBD double mutant: in experiment [1] (setting [8]), the “Δ F(%)” value turned out to be 6%.

Consider “K113C: GGBP-H6 NBD mutant, cysteine substituted for lysine at position 113”, for which the “Δ F(%)” value in experiment [1] (setting [8]) is on record as 15%.

B1: E149C, M182C, A213C, L238S: GGBP-H6 NBD mutant with four amino acid substitutions (protein, UniProt P0AEE5 24-332, looked up, variant E149C M182C A213C L238S)
D-galactose/methyl-galactoside …: ADTRIGVTIYKYDDNFMSVVRKAIEQDAKAAPDVQLLMNDSQNDQSKQNDQIDVLLAKGVKALAINLVDPAAAGTVIEKARGQNVPVVFFNKEPSRKALDSYDKAYYVGTDSKESGIIQGDLIAKHWAANQGWDLNKDGQIQFVLLKGCPGHPDAEARTTYVIKELNDKGIKTEQLQLDTACWDTAQAKDKMDAWLSGPNANKIEVVIANNDCMAMGAVEALKAHNKSSIPVFGVDASPEALALVKSGALAGTVLNDANNQAKATFDLAKNLADGKGAADGTNWKIDNKVVRVPYVGVDKDNLAEFSKK
modifications: His6 tag, NBD fluorophore label
notes: GGBP-H6 NBD mutant with four amino acid substitutions
With B1, in experiment [1] (setting [8]), the “Δ F(%)” value amounted to 200%.
